Results from patent US11655254B2, “Substituted piperazines as BTK inhibitors” (HUTCHISON MEDIPHARMA LIMITED, priority 2020, dated 2023).

Experiments:
[1] = target: Phosphorylated BTK in Ramos cells (Homo sapiens (Human), UniProt Q06187); assay: Determination of phosphorylated BTK in Ramos cells (BTK phospho-Y223 HTRF); assay type: cell-based; conditions: Ramos cells stimulated with immunoglobulin M 10 μg/mL and hydrogen peroxide 3.3 mM, 10 minutes
Experimental: Ramos cells were starved in PRMI 1640 medium with 1% FBS for 2 hours. The starved Ramos cells were diluted with Hank's balanced salt solution to 5.0×10^6 cells/ml, seeded in a 96-well plate with 20 μL/well (1.0×10^5 cells/well), and cultured in a 5% CO2, 37° C. cell incubator. […]
The 384 well plate incubated overnight in the constant temperature incubator was taken out to detect the luminescence signal using the Envision microwell plate reader at the […]. The reading value at 665 nm/615 nm of each well multiplied by 10^4 was used as the signal value of each well.
The average signal value of the wells supplemented with the mixed solution of human immunoglobulin M (final concentration was 10 μg/mL) and hydrogen peroxide (final concentration was 3.3 mM) without the test compound was regarded as the high value, and the average signal value of the wells without immunoglobulin M stimulation and without the test compound was regarded as the low value. According to the signal value in each well, the inhibition ratio (%) of each concentration of compounds was calculated, and the 205 model in XL-Fit 5.3 software (ID Business Solutions Limited) was used to obtain an IC50 value.
The inhibition ratio is calculated as follows: inhibition ratio (%)=100%−{(treating well for the test compound−negative control treating well)/(control treating well for anti-human immunoglobulin M−negative control treating well)}×100%, wherein, […]

[2] = system: CIA (collagen induced arthritis) rats; assay: Rat arthritis model induced by type II collagen (CIA); assay type: in vivo; conditions: compared with vehicle control group
Experimental: An appropriate amount of bovine type II collagen (CII, Chondrex (Redmond, Wash., USA), Cat #20021) was weighed and dissolved in 0.1 mole of acetic acid (SPGC Sinopharm Chemical Reagent Co., Ltd (Shanghai, P.R. China), Cat #: 10000218.), which was formulated into a solution with a concentration of 6 mg/mL, stirred at 4° C. overnight, and added with an equal volume of Freund's incomplete adjuvant (Sigma-Aldrich.(St. Louis, Mo., USA), Cat #: SLBW0366.), fully emulsified to prepare an emulsion with a CII concentration of 3 mg/mL.
Female Lewis rats were purchased from Beijing Vital River Laboratory Animal Technology Co., Ltd. (certificate number 20200928Aazz0619000579, initial body weight of 110-130 grams), and 6 rats were randomly selected as a normal group; and all of the remaining rats were immunized. In the first immunization on day 0, the rats except those in the normal group were anesthetized with isoflurane (Hebei Yipin Pharmaceutical Co., Ltd., Lot: C002170601.), and then disinfected with 75% alcohol, and 0.2 mL of emulsion was injected intradermally at the base of the tail thereof. A second challenge was carried out on day 7, and 0.2 mL of emulsion was intradermally injected using the same method. Once the animals developed symptoms on day 10, the incidence conditions thereof were closely monitored.
After grouping, the normal group was not administered, and the rats in the other groups were administered with the control vehicle, 0.25 mg/kg and 4 mg/kg of the reference GDC-0853, and each dose of compound 1 orally once a day until the end of the experiment.
The paw volume was measured on day 10 after immunization, and the left and right hind paw volumes (V) were measured every day after the paw volume increase was detected.
The arthrosis paw volumes of the left and right hind limbs of each animal were measured, and the average paw volume (APV) was calculated according to the following formula: Average paw volume APV=(Vleft+Vright)/2
The average arthrosis paw volume of each animal before administration was used as the baseline (or considered 100% inhibition of inflammation). […]
The area under the curve (AUC) of the average paw volume swelling is the area under the curve of the arthrosis score swelling calculated by the trapezoid method, and the calculation formula is: AUCAPS=1/2×(APSd1+APSd2)×(d2−d1)+1/2×(APSd2+APSd3)×(d3−d2)+ . . . +1/2×(APSdn+APSd(n-1))×(dn−dn-1). […]
ED50 is calculated by XLfit software according to the AUC inhibition ratio of the area under the curve of the average paw volume swelling. […]

Sequence of Phosphorylated BTK in Ramos cells (Q06187 whole entry): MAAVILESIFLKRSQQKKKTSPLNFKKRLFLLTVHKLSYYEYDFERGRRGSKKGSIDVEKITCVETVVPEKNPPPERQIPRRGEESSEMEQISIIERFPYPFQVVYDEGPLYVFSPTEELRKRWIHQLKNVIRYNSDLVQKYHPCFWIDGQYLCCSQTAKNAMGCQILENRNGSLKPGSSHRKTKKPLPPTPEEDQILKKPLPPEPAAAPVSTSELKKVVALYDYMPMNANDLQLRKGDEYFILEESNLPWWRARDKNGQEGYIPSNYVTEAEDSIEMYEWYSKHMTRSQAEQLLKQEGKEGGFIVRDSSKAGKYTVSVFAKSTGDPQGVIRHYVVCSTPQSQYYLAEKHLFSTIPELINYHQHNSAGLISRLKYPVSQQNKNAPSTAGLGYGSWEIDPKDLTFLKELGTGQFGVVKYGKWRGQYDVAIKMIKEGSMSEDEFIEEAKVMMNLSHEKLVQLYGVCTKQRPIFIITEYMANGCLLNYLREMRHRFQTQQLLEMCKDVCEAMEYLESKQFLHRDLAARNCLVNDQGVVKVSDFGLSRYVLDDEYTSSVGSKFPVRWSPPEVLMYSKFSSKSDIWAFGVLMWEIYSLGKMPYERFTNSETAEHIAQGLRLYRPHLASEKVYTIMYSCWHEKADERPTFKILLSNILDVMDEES

Question: Which results are given for `C[C@H]1CN(C2COC2)C[C@H](C)N1c1ccc(Nc2cc(-c3ccnc(-n4ccn5c6c(cc5c4=O)CC(C)(C)C6)c3CO)cn(C)c2=O)nc1` [Compound 1, 2-(5-((5-((2S,6S)-2,6-dimethyl-4-(oxetan-3-yl)piperazin-1-yl)pyridin-2-yl)amino)-3′-(hydroxymethyl)-1-methyl-6-oxo-1,6-dihydro-[3,4′-bipyridin]-2′-yl)-7,7-dimethyl-7,8-dihydro-2H-cyclopenta[4,5]pyrrolo[1,2-a]pyrazin-1(6H)-one]?
Answer: IC50 [1]: 5 nM; effect on paw volume ([2]; 0.25 mg/kg oral QD): significantly increase the continuous improvement of paw volume swelling; effect on paw volume ([2]; 4 mg/kg oral QD): significantly increase the continuous improvement of paw volume swelling
